Series [1] is described as follows: logP determination (neutral / HCOOH). The note with it: for chromatographic logP: HCOOH (formic acid).
For series [2], the system named is green peach aphid (Myzus persicae). The series can be described thus: Myzus test (spray treatment). It counts as in vivo. The conditions noted are these: foliar, 144 h, read-out: activity (effect in %, aphids killed). The method, then:
Solvents: 78 parts by weight of acetone
• 1.5 parts by weight of dimethylformamide Emulsifier 0.5 part by weight of alkylaryl polyglycol ether
To produce a suitable preparation of active compound, 1 part by weight of active compound is mixed with the stated amounts of solvents and emulsifier, and the concentrate is diluted with emulsifier-containing water to the desired concentration. Discs of leaves of Chinese cabbage (Brassica pekinensis) which are infested by all stages of the green peach aphid (Myzus persicae) are sprayed with an active compound preparation of the desired concentration.
After 6 days, the effect in % is determined. 100% means that all aphids have been killed; 0% means that none of the aphids has been killed.

Where [3] appears, read: application rate 500 g/ha, after 6 days, Chinese cabbage leaf discs.

Read-outs that look alike come from different tables or passages of the source.

With `COCC(=O)c1cccc(Br)n1` [1-(6-Bromopyridin-2-yl)-2-methoxyethanone], the logP – broadly, a log measure of how a compound divides between an organic and an aqueous phase – in series [1] (logP (neutral), neutral) amounted to 1.73.
In the case of `CC(=O)c1cnn(-c2cccnc2)c1` [1-[1-(Pyridin-3-yl)-1H-pyrazol-4-yl]ethanone], the chromatographic logP (commonly a lipophilicity value derived from retention on a column) in series [1] (logP (HCOOH), HCOOH) worked out at 0.76.
With `CC(=O)c1cccc(-c2cnn(-c3cccnc3)c2)n1` [1-[6-(1-Pyridin-3-yl-1H-pyrazol-4-yl)pyridin-2-yl]ethanone], the logP in series [1] (logP (neutral), neutral) was found to be 1.94.
Turning to `c1cnc(-c2cc[nH]n2)nc1` [2-(1H-Pyrazol-3-yl)pyrimidine], in series [1] (logP (HCOOH), HCOOH), the chromatographic logP worked out at 0.1.
On the same count and under the same terms, the value for `Brc1cccc(-c2ncccn2)n1` [2-(6-Bromopyridin-2-yl)pyrimidine] was 1.3.
Turning to `NC(=S)c1cccc(-c2cnn(-c3cccnc3)c2)n1` [6-(1-Pyridin-3-yl-1H-pyrazol-4-yl)pyridine-2-carbothioamide], the logP in series [1] (logP (neutral), neutral) is 1.77.
Same read-out and setting: the value for `N=C(N)c1cccc(-c2cnn(-c3cccnc3)c2)n1` [6-(1-Pyridin-3-yl-1H-pyrazol-4-yl)pyridine-2-carboxamidine] was 1.99.
For the compound `CN(C)/C=C/C(=O)c1cnn(-c2cccnc2)c1` [(2E)-3-(Dimethylamino)-1-[1-(pyridin-3-yl)-1H-pyrazol-4-yl]prop-2-en-1-one], the lipophilicity (logP) in series [1] (HCOOH, logP (HCOOH)) was found to be 0.93.
Turning to `c1cnc(-c2ccn(-c3cnn(-c4cccnc4)c3)n2)nc1` [Example 2, 1′-(Pyridin-3-yl)-3-(pyrimidin-2-yl)-1′H-1,4′-bipyrazole], the pest or weed control at 500 g/ha in series [2] (setting [3]) worked out at 100%. Further, in series [1] (HCOOH, logP (HCOOH)), the logP stood at 1.18.
Take `FC(F)(F)c1ccn(-c2cnn(-c3cccnc3)c2)n1` [Example 3, 1′-Pyridin-3-yl-3-trifluoromethyl-1′H-[1,4′]bipyrazolyl]: the pest or weed control at 500 g/ha in series [2] (setting [3]) amounted to 100%. Besides, the chromatographic logP in series [1] (logP (HCOOH), HCOOH) is 2.27.
Taken in the same sequence, the figures for `FC(F)(F)c1cccc(-c2cnn(-c3cccnc3)c2)n1` [Example 4, 2-[1-(Pyridin-3-yl)-1H-pyrazol-4-yl]-6-(trifluoromethyl)pyridine] were 100% and 2.51.
`Cn1cnc(-c2cccc(-c3cnn(-c4cccnc4)c3)n2)n1` [Example 6, 2-(1-Methyl-1H-[1,2,4]triazol-3-yl)-6-(1-pyridin-3-yl-1H-pyrazol-4-yl)pyridine]: the pest or weed control at 500 g/ha in series [2] (setting [3]) stood at 100%. The compound further yielded a logP in series [1] (logP (neutral), neutral) of 1.29.
With `FC(F)(F)c1ccnc(-n2ccc(-c3cnn(-c4cccnc4)c3)n2)n1` [Example 8, 1′-(Pyridin-3-yl)-1-[4-(trifluoromethyl)pyrimidin-2-yl]-1H,1′H-3,4′-bipyrazole], the pest or weed control at 500 g/ha in series [2] (setting [3]) came out at 90%. For the same compound, the chromatographic logP in series [1] (logP (HCOOH), HCOOH) is 2.15.
On to `FC(F)(F)C(F)(F)c1nccc(-c2cnn(-c3cccnc3)c2)n1` [Example 9, 2-(Pentafluoroethyl)-4-[1-(pyridin-3-yl)-1H-pyrazol-4-yl]pyrimidine], for which, in series [2] (setting [3]), the pest or weed control at 500 g/ha stood at 100%. Further, the logP in series [1] (HCOOH, logP (HCOOH)) stood at 2.7.
For the compound `CC1(c2cccc(-c3cnn(-c4cccnc4)c3)n2)OCCO1` [Example 10, 2-(2-Methyl-1,3-dioxolan-2-yl)-6-(1-pyridin-3-yl-1H-pyrazol-4-yl)pyridine], in series [2] (in Brassica rapa), the pest or weed control at 500 g/ha was determined as 100%. The compound further showed a logP in series [1] (logP (neutral), neutral) of 1.89.
As to `COCC(F)(F)c1cccc(-c2cnn(-c3cccnc3)c2)n1` [Example 11, 2-(1,1-Difluoro-2-methoxyethyl)-6-(1-pyridin-3-yl-1H-pyrazol-4-yl)pyridine], the pest or weed control at 500 g/ha in series [2] (setting [3]) was found to be 100%. In addition, the logP in series [1] (logP (neutral), neutral) stood at 2.3.
As to `c1ccc(-c2cnn(-c3cccnc3)c2)nc1` [Example 12], the pest or weed control at 500 g/ha in series [2] (setting [3]) was 100%. The chromatographic logP in series [1] (logP (HCOOH), HCOOH) is 0.81.
Taken in the same sequence, the figures for `c1cncc(-n2cc(-c3cccc(C4OCCCO4)n3)cn2)c1` [Example 13] were 90% and 1.59.
The like results for `Fc1cncc(-n2cc(-c3cccc(-c4ncccn4)n3)cn2)c1` [Example 14] were, in that order, 90% and 1.81.
Take `FC(F)(F)c1nccc(-c2cnn(-c3cccnc3)c2)n1` [Example 15]: in series [2] (setting [3]), the pest or weed control at 500 g/ha came to 100%. Also, the chromatographic logP in series [1] (logP (HCOOH), HCOOH) was found to be 2.13.
For `CN(C)C(=O)c1cccc(-c2cnn(-c3cccnc3)c2)n1` [Example 17], the pest or weed control at 500 g/ha in series [2] (setting [3]) was 100%. In addition, in series [1] (logP (HCOOH), HCOOH), the chromatographic logP came to 1.24.
The like results for `O=C(c1cccc(-c2cnn(-c3cccnc3)c2)n1)N1CCOCC1` [Example 18] were, in that order, 100% and 1.23.
Taken in the same sequence, the figures for `c1cncc(-n2cc(-c3cccc(-n4cccn4)n3)cn2)c1` [Example 19] were 100% and 2.21.
For `Clc1cccc(-c2cnn(-c3cccnc3)c2)n1` [Example 20], in series [1] (logP (HCOOH), HCOOH), the chromatographic logP was 2.05.
On to `Cc1cc(C)n(-c2cccc(-c3cnn(-c4cccnc4)c3)n2)n1` [Example 21], for which, in series [2] (setting [3]), the pest or weed control at 500 g/ha is 100%. The compound further registered a chromatographic logP in series [1] (logP (HCOOH), HCOOH) of 2.64.
Consider `c1ccc(-c2ccn(-c3cnn(-c4cccnc4)c3)n2)nc1` [Example 23], for which, in series [2] (setting [3]), the pest or weed control at 500 g/ha turned out to be 100%. In series [1] (logP (HCOOH), HCOOH), this compound returned a chromatographic logP of 1.19.
Taken in the same sequence, the figures for `Brc1cccc(-c2cnn(-c3cccnc3)c2)n1` [Example 24] were 100% and 2.18.
For the compound `FC(F)(F)COc1cccc(-c2cnn(-c3cccnc3)c2)n1` [Example 25], in series [2] (application rate 100 g/ha, after 6 days, Chinese cabbage leaf discs), the pest or weed control at 100 g/ha was determined as 80%. This compound also gave a chromatographic logP in series [1] (logP (HCOOH), HCOOH) of 2.96.
In the case of `Cc1nn(-c2cccnc2)cc1-n1ccc(C(F)(F)F)n1` [Example 26], the pest or weed control at 500 g/ha in series [2] (setting [3]) was 100%. In series [1] (logP (HCOOH), HCOOH), this compound returned a chromatographic logP of 2.51.
Taken in the same sequence, the figures for `CC(C)(C)OC(=O)Nc1cccc(-c2cnn(-c3cccnc3)c2)n1` [Example 27] were 100% and 2.87.
On to `COc1ccnc(-n2ccc(-c3cnn(-c4cccnc4)c3)n2)n1` [Example 28], for which, in series [2] (setting [3]), the pest or weed control at 500 g/ha was 100%. The chromatographic logP in series [1] (logP (HCOOH), HCOOH) came to 1.71.
Taken in the same sequence, the figures for `CC(F)(F)c1cccc(-c2cnn(-c3cccnc3)c2)n1` [Example 29] were 90% and 2.46.
Take `N#Cc1cccc(-c2cnn(-c3cccnc3)c2)n1` [Example 30, 6-(1-Pyridin-3-yl-1H-pyrazol-4-yl)pyridine-2-carbonitrile]: in series [2] (in Brassica rapa), the pest or weed control at 500 g/ha came out at 100%. The logP in series [1] (logP (neutral), neutral) is 1.79. In addition, in series [1] (neutral), the “logP (neutral)” value was 1.73.
For the compound `Fc1cnc(-n2ccc(-c3cnn(-c4cccnc4)c3)n2)nc1` [Example 31], the pest or weed control at 500 g/ha in series [2] (setting [3]) came out at 100%. Also, in series [1] (logP (HCOOH), HCOOH), the chromatographic logP was found to be 1.52.
Taken in the same sequence, the figures for `c1cnc(-n2ccc(-c3cnn(-c4cccnc4)c3)n2)nc1` [Example 33] were 100% and 1.33.
Taken in the same sequence, the figures for `FC(F)(F)c1ccnc(-c2cnn(-c3cccnc3)c2)n1` [Example 35] were 80% and 2.23.
The like results for `c1cncc(-n2cc(-c3cccc(C4OCCO4)n3)cn2)c1` [Example 36] were, in that order, 100% and 1.5.
As to `Ic1cncc(-n2cc(-c3cccc(-c4ncccn4)n3)cn2)c1` [Example 37], the pest or weed control at 500 g/ha in series [2] (setting [3]) is 100%. The compound further showed a chromatographic logP in series [1] (logP (HCOOH), HCOOH) of 2.37.
For the compound `COc1cccc(-c2cnn(-c3cccnc3)c2)n1` [Example 38], the pest or weed control at 500 g/ha in series [2] (setting [3]) is 100%. In series [1] (logP (HCOOH), HCOOH), this compound gave a chromatographic logP of 2.12.
The like results for `c1cncc(-c2cnn(-c3cccnc3)c2)c1` [Example 39] were, in that order, 100% and 0.39.
Regarding `FC(F)(F)c1cccc(-n2ccc(-c3cnn(-c4cccnc4)c3)n2)n1` [Example 41], the chromatographic logP in series [1] (logP (HCOOH), HCOOH) worked out at 3.18.
As to `FC(F)(F)c1cccc(-c2cnn(-c3cccnc3)c2)c1` [Example 52], the chromatographic logP in series [1] (logP (HCOOH), HCOOH) was found to be 2.99.
The compound `COc1ccc(-c2cnn(-c3cccnc3)c2)cc1` [Example 53] yielded a chromatographic logP in series [1] (logP (HCOOH), HCOOH) of 2.12.
On the same count and under the same terms, the value for `O=C1CCCN1c1cccc(-c2cnn(-c3cccnc3)c2)n1` [Example 80] was 1.86; that for `O=C1CCCCN1c1cccc(-c2cnn(-c3cccnc3)c2)n1` [Example 81] was 1.59.
In turn, `CC1(C)COC(c2cccc(-c3cnn(-c4cccnc4)c3)n2)OC1` [Example 104] had a chromatographic logP in series [1] (logP (HCOOH), HCOOH) of 2.44. The compound also gave a logP in series [1] (logP (neutral), neutral) of 2.55.
`Brc1cncc(-n2cc(-c3cccc(-c4ncccn4)n3)cn2)c1` [Example 111] registered a chromatographic logP in series [1] (logP (HCOOH), HCOOH) of 2.17.
The same measure, in the same setting: the value for `c1cncc(-n2cc(-c3ccncn3)cn2)c1` [Example 113] was 0.89.
Still for that read-out and setting: in the case of `N=C(NO)c1cccc(-c2cnn(-c3cccnc3)c2)n1` [Example 114] it was 0.86.
`N=C(NO)c1cccc(-c2cnn(-c3cccnc3)c2)n1` [N-Hydroxy-6-(1-pyridin-3-yl-1H-pyrazol-4-ylpyridine-2-carboxamidine] displayed a logP in series [1] (logP (neutral), neutral) of 1.23.
Regarding `CON(C)C(=O)c1cnn(-c2cccnc2)c1` [N-Methoxy-N-methyl-1-(pyridin-3-yl)-1H-pyrazole-4-carboxamide], in series [1] (HCOOH, logP (HCOOH)), the logP was found to be 0.91.
For the compound `CC1(C)OB(c2cnn(-c3cncc(F)c3)c2)OC1(C)C` [VI-2], the chromatographic logP in series [1] (logP (HCOOH), HCOOH) worked out at 2.88.
Still for that read-out and setting: in the case of `CC1(C)OB(c2cnn(-c3cncnc3)c2)OC1(C)C` [VI-3] it was 2.1.

Source of the values: US9066518B2, “Heterocyclic compounds as pesticides” (Bayer CropScience AG, priority 2009, dated 2015).
